Results: patent US20160115540A1, “PRODRUGS AND DRUGS” (Biogen MA Inc., priority 2013, published 2016)
Structures can show the parent of a compound that is named as a salt.

Test system: kidney
Assay: Transcriptional profiling on Affymetrix GeneChips, single dose, naïve mice: kidney
Type: in vivo, C57BL/6 mice
Settings: kidney; 100MMF-vs-Veh, 12 h
Procedure: Treated mice were sacrificed at 2, 7, or 12 hours. Tissues (liver, spleen, kidney, jejunum, cortex, hippocampus, striatum and whole blood) were collected and analyzed by transcriptional profiling on mouse Affymetrix GeneChips.
Tissues (liver, spleen, kidney, jejunum, cortex, hippocampus, striatum and whole blood) were collected and analyzed by transcriptional profiling on mouse Affymetrix GeneChips.
Animals were exposed to CO2 and whole blood collected via cardiac puncture. Two 100 μl aliquots of whole blood were collected in 1.5 mL microcentrifuge tubes and snap frozen in liquid nitrogen. Peripheral (liver, spleen, kidney and jejunum) and CNS brain (cerebellum, hippocampus, striatum and cortex) tissues were harvested and snap frozen in liquid nitrogen, with special care taken to collect tissues of similar size and from the same location. All samples were stored at −80° C. until RNA extraction was conducted.
For RNA preparation, frozen tissues were placed in 2 mL RNAse-free 96-well blocks with 1.5 mL QIAzol Lysis Reagent (QIAgen) and a 3.2 mm stainless steel bead (BioSpec Products, Bartlesville, Okla.). Tissues were disrupted for four cycles of 45 seconds in a Mini-Beadbeater (Biospec Products). RNA was extracted in chloroform and the aqueous phase was mixed with an equal volume of 70% ethanol. Extracted RNA was applied to RNeasy 96 plates and purified by the spin method according to the manufacturer's protocol (RNeasy 96 Universal Tissue Protocol, QIAgen, Hilden Germany).
Automated sample amplifications and biotin labelings were carried out using the NuGEN Ovation RNA Amplification system V2 (Cat #3100), Ovation WB reagent (Cat #1300) and Encore Biotin module (Cat #4200) (NuGEN Technologies, Inc, San Carlos, Calif.) according to manufacturer's recommendations using an Arrayplex automated liquid handler (Beckman Coulter, Indianapolis, Ind.). Two micrograms of biotin labeled sscDNA probe were hybridized to Affymetrix GeneChip Affymetrix HT_MG-430_PM plate arrays with modified conditions as described in Allaire et al. Washing and staining of the hybridized arrays were completed as described in the GeneChip Expression analysis technical manual for HT plate arrays using the Genechip® Array Station (Affymetrix, Santa Clara, Calif.) with modifications as described in Allaire et al. The processed GeneChip® plate arrays were scanned using GeneTitan scanner (Affymetrix, Santa Clara, Calif.).
Affymetrix scans were subject to quality control (QC) measures. These tests included a visual inspection of the distribution of raw signal intensities and an assessment of RNA degradation, relative log expression (RLE), and normalized unsealed standard error (NUSE). All sample scans that passed these QC metrics were included in the analysis.
All CEL files were subjected to GC-content-based Robust Multi-array Average (GCRMA) normalization (version 2.20.0) (Irizarry R A, et al. Nucleic Acids Res 2003; 31:e15; Li C, et al. Genome Biol 2001; 2:[…]0032). Expression levels were log (base 2) transformed.
All calculations and analyses were carried out using R (version 2.11.1) and Bioconductor computational tools (Gentleman R. Springer Science+Business Media 2005).

## COC(=O)/C=C/C(=O)O [MMF, monomethyl fumarate]
  FC 9130221J18Rik (1446368_PM_at): −1.53
  FC AB099516 /// Higd1c (1447356_PM_at): −1.57
  FC Abcc3 (1428988_PM_at): 1.64
  FC Abcc4 1443870_PM_at: 2.07
  FC Acot1 (1449065_PM_at): 1.59
  FC Acsm2 (1427224_PM_at): −1.52
  FC Agps 1434919_PM_at: −1.80
  FC Akr1b8 (1448894_PM_at): 1.68
  FC Akr1c19 (1455454_PM_at): 2.00
  FC Alas1 1424126_PM_at: 2.02
  FC Alas1 (1455282_PM_x_at): 1.70
  FC Alcam 1426300_PM_at: 2.83
  FC Alcam 1426301_PM_at: 2.09
  FC Alcam 1437467_PM_at: 1.93
  FC Arg2 (1438841_PM_s_at): 2.63
  FC Arhgap26 (1440688_PM_at): −1.57
  FC Asns 1433966_PM_x_at: 2.49
  FC Asns 1451095_PM_at: 2.87
  FC Atp13a3 1442145_PM_at: 1.62
  FC B4galt5 (1433617_PM_s_at): −1.51
  FC BC060267 (1441979_PM_at): 1.74
  FC Bcat1 1430111_PM_a_at: −2.07
  FC Bcat1 1450871_PM_a_at: −2.20
  FC Bcat1 1455699_PM_at: −2.27
  FC Blvrb (1451386_PM_at): 2.23
  FC C3 (1423954_PM_at): 2.34
  FC C8a (1428012_PM_at): −1.51
  FC Cbr1 (1460196_PM_at): 2.10
  FC Cbr3 (1427912_PM_at): 7.02
  FC Cdkn1a (1424638_PM_at): 2.73
  FC Chrdl1 (1456722_PM_at): −1.55
  FC Cldn1 (1437932_PM_a_at): 1.57
  FC D16Ertd778e 1445089_PM_at: −2.25
  FC Dcdc2a (1459661_PM_at): 1.69
  FC Dnase2a (1430135_PM_at): 2.15
  FC Dpys (1436291_PM_a_at): 1.51
  FC Endou 1449937_PM_at: 1.89
  FC Ep400 (1449610_PM_at): −1.67
  FC Esr1 1460591_PM_at: −1.54
  FC Esr1 (1435663_PM_at): −1.75
  FC Fga (1424279_PM_at): 1.79
  FC Fgf1 1450869_PM_at: −1.58
  FC G6pdx (1448354_PM_at): 1.70
  FC Gclc (1455959_PM_s_at): 1.64
  FC Gjb1 1448766_PM_at: 1.81
  FC Gjb1 (1448767_PM_s_at): 1.67
  FC Gm5101 (1442588_PM_at): −1.50
  FC Gpr135 1441944_PM_s_at: 1.59
  FC Gpr135 1459274_PM_at: 1.65
  FC Gpt (1426502_PM_s_at): 1.51
  FC Gstm1 (1425627_PM_x_at): 1.56
  FC Gstm1 (1448330_PM_at): 1.54
  FC Gstm4 (1424835_PM_at): 1.70
  FC Gstp1 (1449575_PM_a_at): 1.54
  FC Havcr1 1434716_PM_at: 4.79
  FC Hfe 1450702_PM_at: 1.67
  FC Hist1h1c (1438204_PM_at): 1.82
  FC Hist1h2be 1440330_PM_at: 2.92
  FC Hist1h2be (1445565_PM_at): 2.48
  FC Ikbkg 1435646_PM_at: 1.76
  FC Ikbkg 1454690_PM_at: 1.54
  FC Kif20b 1439695_PM_a_at: −2.85
  FC Klk1b21 (1451607_PM_at): 1.57
  FC Lcp1 1448160_PM_at: 1.54
  FC Lpar2 1442291_PM_at: 1.93
  FC Lrat (1444487_PM_at): 1.72
  FC Maf (1435828_PM_at): 1.53
  FC Maf (1447849_PM_s_at): 1.54
  FC Myo5a (1431320_PM_a_at): −2.35
  FC Myo5a (1436051_PM_at): −2.04
  FC Nfia (1446742_PM_at): −1.74
  FC Nqo1 (1423627_PM_at): 2.11
  FC Pank1 1457110_PM_at: −1.73
  FC Pank2 1452733_PM_at: −1.97
  FC Pgd 1423706_PM_a_at: 2.27
  FC Pgd 1438627_PM_x_at: 1.83
  FC Pgd (1436771_PM_x_at): 2.03
  FC Pgd (1437380_PM_x_at): 2.05
  FC Phlda3 (1449002_PM_at): 1.81
  FC Pigl (1440965_PM_at): 1.52
  FC Pir (1429001_PM_at): 3.08
  FC Ptprr (1426047_PM_a_at): 1.69
  FC Rcor3 (1428343_PM_at): −1.51
  FC Reep6 (1430128_PM_a_at): 1.51
  FC Rnf24 1436101_PM_at: −2.01
  FC Slc5a3 (1440227_PM_at): −1.50
  FC Slc8a1 (1437675_PM_at): −1.86
  FC Slc9a8 1454865_PM_at: −2.40
  FC Slc22a14 (1440058_PM_at): 1.54
  FC Slc39a8 (1448482_PM_at): −1.55
  FC Slc48a1 (1450409_PM_a_at): 1.53
  FC Slco2a1 (1444242_PM_at): 1.63
  FC Slco4c1 (1437870_PM_at): −1.69
  FC Slco4c1 (1460616_PM_at): −2.08
  FC Smarca2 (1452333_PM_at): −1.60
  FC Srxn1 (1425351_PM_at): 1.89
  FC Srxn1 (1426875_PM_s_at): 1.91
  FC Srxn1 (1451680_PM_at): 2.09
  FC Tmc5 (1452934_PM_at): 1.91
  FC Tmie (1443964_PM_at): 1.65
  FC Trim16 (1460629_PM_at): 1.51
  FC Txnrd1 (1424487_PM_x_at): 1.74
  FC Vps8 (1434050_PM_at): −1.84
  FC Vps8 (1454810_PM_s_at): −1.55
